According to article PMC4087041, “Effect of the Piperazine Unit and Metal-Binding Site Position on the Solubility and Anti-Proliferative Activity of Ruthenium(II)- and Osmium(II)- Arene Complexes of Isomeric Indolo[3,2-c]quinoline—Piperazine Hybrids” (Inorganic Chemistry, 2014):
Read-outs that look alike come from different tables or passages of the source. Each block holds one compound with its values, some of them ahead of it.

Experiments:
[1] = test system: SK-N-MC neuroepithelioma cells; assay: MTT assay, inhibition of growth of SK-N-MC cells; assay type: cell-based, Human; details: 72 h, medium with diferric transferrin 1.25 μM, mean ± SD (three experiments), read-out: IC50 at inhibiting the growth of SK-N-MC neuroepithelioma cells
Description: Human SK-N-MC neuroepithelioma cells were obtained from the American Type Culture Collection (ATCC; Manassas, VA). The SK-N-MC cell type was grown as described previously.[51]
The effect of complexes [1a,b]Cl–[3a,b]Cl on the cellular proliferation of SK-N-MC cells was examined using the 1-(4,5-dimethylthiazol-2-yl)-2,5-diphenyl-tetrazolium (MTT) assay by standard techniques.[52],[53] Human SK-N-MC cells were chosen for these studies as the antiproliferative effect of metal complexes has been extensively examined in this cell type.[52]−[54] MTT reduction is proportional to viable cell counts using SK-N-MC cells.[51] SK-N-MC cells were seeded at 1.5 × 10^4 cells/well in 96-well microtiter plates in a medium containing the compounds (0–50 μM) and human diferric transferrin (Tf) at 1.25 μM ([Fe] = 2.5 μM). Control samples contained Tf (1.25 μM) in the absence of the compounds. […] It is essential to add to the media when assessing the antiproliferative activity of the ligands used as positive controls, namely, desferrioxamine (DFO), di-2-pyridylketone 4,4-dimethyl-3-thiosemicarbazone (Dp44mT), and Doxorubicin.[61] The cells were incubated at 37 °C for 72 h, after which 10 μL of MTT solution (stock solution: 5 mg/mL) was added to each well and incubated for 2 h at 37 °C. After cell solubilization using 100 μL of 10% SDS–50% isobutanol in 0.01 M HCl, the plates were read at 570 nm using a scanning multiwell spectrophotometer. The inhibitory concentration (IC50) was defined as the concentration of the compound necessary to reduce the absorbance to 50% of the untreated control.

[2] = Stability in DMSO by ESI mass spectrometry; assay type: physicochemical; details: DMSO solution, up to 19 h old, diluted with methanol 1:100, ESI-MS
Source text: Complexes [3a]Cl and [3b]Cl remain intact when dissolved in DMSO.

[3] = Hydrolysis / stability in aqueous media by HPLC; assay type: physicochemical; details: for Estimated half-lifetime of the chlorido species: 75 μM solution in 20 mM phosphate buffer at pH 7.40, HPLC with UV detection at 300 nm; for Fraction of complex hydrolyzed after 24 h: 20 mM NaH2PO4/Na2HPO4 buffer at pH 7.40, 24 h, HPLC (Figure S4)
Description: One-dimensional (1D) ^1H and ^13C NMR and two-dimensional (2D) ^1H–^1H COSY, ^1H–^1H TOCSY, ^1H–^1H ROESY or ^1H–^1H NOESY, ^1H–^13C HSQC, and ^1H–^13C HMBC NMR spectra were recorded on two Bruker Avance III spectrometers at 500.32 or 500.10 (^1H), and 125.82 or 125.76 (^13C) MHz, respectively, by using DMSO-d6 as a solvent at room temperature and standard pulse programs. ^1H and ^13C shifts are quoted relative to the solvent residual signals. The atom numbering scheme used for NMR assignments is depicted in Supporting Information, Scheme S1. Electrospray ionization mass spectrometry (ESI-MS) was carried out with a Bruker Esquire 3000 instrument, and the samples were dissolved in methanol. Elemental analyses were performed at the Microanalytical Laboratory of the University of Vienna with a PerkinElmer 2400 CHN Elemental Analyzer (PerkinElmer, Waltham, MA). Hydrolysis studies were undertaken on a ThermoFisher Dionex UltiMate 3000 HPLC (Waltham, MA) device. The column compartment was kept at 298 K. A Hypersil Gold C18 Reversed phase Silica Column (250 × 4.6 mm, 5 μm particle size, ThermoFisher; Waltham, MA) equipped with a guard column was used. The complexes were dissolved in either pure deionized water or phosphate buffer at pH 7.40 so that the final concentrations were 100 mM or 75 μM, respectively. Samples were automatically injected into the HPLC, and separation of the hydrolysis products was achieved by applying gradient elution (5–80% or 10–50% acetonitrile in 15 mM aqueous formic acid). Detection and quantification of the peaks was conducted using the ThermoFisher Dionex DAD-3000RS UV detector (Waltham, MA) at a wavelength of 300 nm and the Chromeleon 7 software package (ThermoFisher Dionex, Sunnyvale, CA).
Their stability in deionized water (Supporting Information, Figure S3) is very similar to that in buffered solution at physiological pH (Supporting Information, Figure S4; 20 mM NaH2PO4/Na2HPO4 buffer at pH 7.40). […] Attempts to establish the nature of the predominant hydrolysis reactions were then performed. The fractions containing the two peaks from the hydrolysis of [2a]Cl were collected and subjected to high-resolution ESI mass spectrometry. The most abundant mass at m/z 373.1397 could be attributed to the doubly charged fragment [M–2Cl]^2+, whereas the second peak at m/z 736.2786 was assigned to the hydroxido species [M–2Cl+OH]^+, clearly stemming from hydrolysis of the chlorido ligand.
Data were recorded every hour over 24 h using HPLC with UV detection at 300 nm (see Experimental Section for details). Quantification was done by normalizing the AUC to the AUC at 0 h.

Compound: (η^6-p-Cymene)[6-(4-methylpiperazin-1-yl)-κN-(pyridin-2-yl-methylene)-11H-indolo[3,2-c]quinolin-8-κN-amine]chloridoosmium(II) Chloride [[3b]Cl]
- IC50 [1]: 41.2 ± 2.37 µM
- Stability when dissolved in DMSO [2]: remain intact

Compound: CC(=O)N(O)CCCCCNC(=O)CCC(=O)N(O)CCCCCNC(=O)CCC(=O)N(O)CCCCCN [DFO, desferrioxamine, reference compound]
- IC50 ([1]; Homo sapiens, SK-N-MC): 9.83 ± 0.39 µM

Compound: (η^6-p-Cymene)[6-(4-methylpiperazin-1-yl)-κN-(pyridin-2-yl-methylene)-11H-indolo[3,2-c]quinolin-2-κN-amine]chloridoosmium(II) Chloride [[1b]Cl]
- IC50 [1]: > 50 µM

Compound: (η^6-p-Cymene)[6-(4-methylpiperazin-1-yl)-κN-(pyridin-2-yl-methylene)-11H-indolo[3,2-c]quinolin-8-κN-amine]chloridoruthenium(II) Chloride [[3a]Cl]
- IC50 [1]: > 50 µM
- Stability when dissolved in DMSO [2]: remain intact

Compound: COc1cccc2c1C(=O)c1c(O)c3c(c(O)c1C2=O)C[C@@](O)(C(=O)CO)C[C@@H]3O[C@H]1C[C@H](N)[C@H](O)[C@H](C)O1 [DOX, doxorubicin, reference compound]
- IC50 ([1]; Homo sapiens, SK-N-MC): 0.15 ± 0.05 µM

Continued by falling IC50 [1], values first:

- IC50 [1]: 39.8 ± 2.07 µM
Compound: (η^6-p-Cymene)[6-(4-methylpiperazin-1-yl)-κN-(pyridin-2-yl-methylene)-11H-indolo[3,2-c]quinolin-2-κN-amine]chloridoruthenium(II) Chloride [[1a]Cl]

- IC50 [1]: 19.4 ± 1.28 µM
- Estimated half-lifetime of the chlorido species [3]: approximately 6 h
- Fraction of complex hydrolyzed after 24 h [3]: greater than 90%
Compound: (η^6-p-Cymene)[6-(4-methylpiperazin-1-yl)-κN-(pyridin-2-yl-methylene)-11H-indolo[3,2-c]quinolin-4-κN-amine]chloridoosmium(II) Chloride [[2b]Cl]

- IC50 [1]: 18.4 ± 2.22 µM
- Estimated half-lifetime of the chlorido species [3]: approximately 6 h
- AUC of third (minor) hydrolysis species compared to the starting material ([3]; 75 μM solution in 20 mM phosphate buffer at pH 7.40, after 24 h): approximately 12%
- Fraction of complex hydrolyzed after 24 h [3]: greater than 90%
Compound: (η^6-p-Cymene)[6-(4-methylpiperazin-1-yl)-κN-(pyridin-2-yl-methylene)-11H-indolo[3,2-c]quinolin-4-κN-amine]chloridoruthenium(II) Chloride [[2a]Cl]

- IC50 [1]: 0.004 ± 0.003 µM
Compound: CN(C)C(=S)NN=C(c1ccccn1)c1ccccn1 [Dp44mT, di-2-pyridylketone 4,4-dimethyl-3-thiosemicarbazone, reference compound]
